# According to PMC5382172 (Frontiers in Molecular Neuroscience, 2017):
# How the values were obtained:
# [1] = target: T1, GluClαWT (GLC-1) homomeric receptor (Caenorhabditis elegans, UniProt G5EBR3); assay: Whole-cell patch clamp in CHO cells transfected with GluClαWT subunit alone; assay type: cell-based; conditions: αWT alone, 500 nM IVM, -60 mV
# T1 construct: entry codes of the full-length subunits used in this study; expressed in transfected cells; host or cells: CHO cells, transient transfection, pcDNA3.1
# T1 sequence (G5EBR3 21-461): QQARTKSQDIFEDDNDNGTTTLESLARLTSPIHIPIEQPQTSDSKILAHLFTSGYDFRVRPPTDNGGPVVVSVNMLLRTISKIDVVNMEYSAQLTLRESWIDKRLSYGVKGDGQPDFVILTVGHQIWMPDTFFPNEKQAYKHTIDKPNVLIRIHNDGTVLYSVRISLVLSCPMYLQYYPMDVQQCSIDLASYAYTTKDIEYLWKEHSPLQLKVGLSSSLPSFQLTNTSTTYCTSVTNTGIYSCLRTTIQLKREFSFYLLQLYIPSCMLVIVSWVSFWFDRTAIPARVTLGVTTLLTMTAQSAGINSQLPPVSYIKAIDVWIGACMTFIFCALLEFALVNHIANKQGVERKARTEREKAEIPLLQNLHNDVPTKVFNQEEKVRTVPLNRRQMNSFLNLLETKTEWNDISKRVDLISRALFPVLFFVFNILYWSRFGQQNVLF
# [2] = target: T2, GluClαE273R/βWT receptor (Caenorhabditis elegans, UniProt G5EBR3+Q17328, E273R); assay: Whole-cell patch clamp in CHO cells, GluClαE273R/βWT receptor; assay type: cell-based; conditions: 500 nM IVM, -60 mV
# T2 construct: entry codes of the full-length subunits used in this study; expressed in transfected cells; host or cells: CHO cells, transient co-transfection 1:1, pcDNA3.1
# T2 sequence (G5EBR3 21-461 E273R, one chain of several): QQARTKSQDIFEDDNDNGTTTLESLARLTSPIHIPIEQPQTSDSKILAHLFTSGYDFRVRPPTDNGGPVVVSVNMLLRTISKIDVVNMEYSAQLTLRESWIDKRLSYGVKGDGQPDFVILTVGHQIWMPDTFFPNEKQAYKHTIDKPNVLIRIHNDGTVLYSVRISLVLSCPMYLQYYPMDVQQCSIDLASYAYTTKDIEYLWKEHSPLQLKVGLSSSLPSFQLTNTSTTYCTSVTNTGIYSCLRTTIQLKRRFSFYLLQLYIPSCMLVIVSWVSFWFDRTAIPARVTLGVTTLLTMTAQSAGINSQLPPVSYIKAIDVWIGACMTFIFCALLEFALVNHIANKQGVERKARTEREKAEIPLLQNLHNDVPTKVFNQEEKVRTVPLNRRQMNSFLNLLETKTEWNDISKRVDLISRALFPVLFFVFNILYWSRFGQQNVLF
# Procedure: (§1) Chinese hamster ovary (CHO) cells were cultured as previously (Bar-Lev et al., [2011]) in Dulbecco’s Modified Eagle Medium (DMEM) containing 10% fetal calf serum, 2 mM glutamax, 100 Units/ml penicillin G and 100 μg/ml streptomycin, and grown in 5% CO2 at 37°C under 90%–95% humidity. The cells were seeded on glass coverslips (13-mm diameter) placed in a 24-multiwell plate. […] For the expression of GluCl receptors, cells were transiently co-transfected with pcDNA3.1 plasmids containing the ORFs of interest using transit-LT1 transfection reagent (Mirus, Madison, WI, USA), according to the manufacturer’s protocol. The cDNAs encoding the C. elegans GluClα (GLC-1) or its mutated versions and the GluClβ (GLC-2) subunits (200–600 ng per well) were used at 1:1 ratio. The pIRES-CD8 plasmid (200 ng per well) was added to enable the visualization of the expressing cells by beads coated with anti-CD8 antibodies (Invitrogen). […]
# (§2) Whole-cell patch clamp recordings were performed as described previously (Bar-Lev et al., [2011]) in CHO cells that were prepared as detailed above. […] The currents were measured with an Axopatch 200B patch-clamp amplifier (Molecular Devices, Sunnyvale, CA, USA) and a Digidata 1440A interface (Molecular Devices). […]
# [3] = target: T3, GluClαF276W/βWT receptor (Caenorhabditis elegans, UniProt G5EBR3+Q17328, F276W); assay: Whole-cell patch clamp in CHO cells, GluClαF276W/βWT receptor; assay type: cell-based; conditions: 500 nM IVM, -60 mV
# T3 construct: entry codes of the full-length subunits used in this study; expressed in transfected cells; host or cells: CHO cells, transient co-transfection 1:1, pcDNA3.1
# T3 sequence (G5EBR3 21-461 F276W, one chain of several): as the sequence (G5EBR3 21-461 E273R, one chain of several) above, with R253E, F256W counted along it
# Procedure: as §1, §2
# [4] = target: T1, GluClαWT (GLC-1) homomeric receptor; set-up: method as in Degani-Katzav et al., [2016]; conditions: CHO cells, αWT alone; ref Degani-Katzav et al., [2016]; cited from earlier work
# [5] = target: T4, GluClαWT/βWT receptor (Caenorhabditis elegans, UniProt G5EBR3+Q17328); set-up: method as in Degani-Katzav et al., [2016]; conditions: CHO cells co-transfected with WT α and β subunits; ref Degani-Katzav et al., [2016]; cited from earlier work
# T4 construct: entry codes of the full-length subunits used in this study; expressed in transfected cells; host or cells: CHO cells, transient co-transfection 1:1, pcDNA3.1
# T4 sequence (G5EBR3 21-461): T1 sequence (G5EBR3 21-461)
# T4 sequence (Q17328 23-434): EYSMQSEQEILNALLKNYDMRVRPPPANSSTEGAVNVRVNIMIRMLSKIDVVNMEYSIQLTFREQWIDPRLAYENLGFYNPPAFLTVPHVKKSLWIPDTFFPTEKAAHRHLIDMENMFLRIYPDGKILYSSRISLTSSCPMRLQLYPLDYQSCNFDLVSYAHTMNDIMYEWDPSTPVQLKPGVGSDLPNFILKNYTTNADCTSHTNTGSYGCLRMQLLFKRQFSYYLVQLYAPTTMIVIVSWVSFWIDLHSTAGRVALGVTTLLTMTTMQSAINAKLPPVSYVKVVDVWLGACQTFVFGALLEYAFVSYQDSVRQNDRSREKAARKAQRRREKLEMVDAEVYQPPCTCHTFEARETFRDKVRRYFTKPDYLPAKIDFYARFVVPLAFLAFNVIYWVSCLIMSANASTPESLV
smiles,measurement,setting,value
"CC[C@H](C)[C@H]1O[C@]2(CC[C@@H]1C)C[C@@H]1C[C@@H](C/C=C(\C)[C@@H](O[C@H]3C[C@H](OC)[C@@H](O[C@H]4C[C@H](OC)[C@@H](O)[C@H](C)O4)[C@H](C)O3)[C@@H](C)/C=C/C=C3\CO[C@@H]4[C@H](O)C(C)=C[C@@H](C(=O)O1)[C@]34O)O2 [IVM, ivermectin]",IVM (500 nM) Amplitude,[1],1.0 ± 0.3 (14) nA
same,IVM (500 nM) Amplitude,[2],1.0 ± 0.2 nA
same,IVM (500 nM) Amplitude,[3],1.2 ± 0.2 nA
same,response to 500 nM IVM,[4],robust responses
same,response to IVM,[5],robust responses
